Assay results reported in article PMC11079024, “Identification of a family of species-selective complex I inhibitors as potential anthelmintics” (Nature Communications, 2024).
Like-named read-outs stand apart in the source and are kept apart here.

Columns and labels:
[1] = biological target: C. elegans (N2) complex I (NADH:ubiquinone oxidoreductase) (Caenorhabditis elegans, UniProt P24887+Q93873+Q94360); assay: biochemical; assay type: biochemical; details: for Log IC50 C. elegans complex I: log10 of IC50 in µM, C. elegans mitochondria; for activity at 0.0001 µM / activity at 0.0005 µM / activity at 0.001 µM / activity at 0.0025 µM / activity at 0.005 µM / activity at 0.013 µM / activity at 0.025 µM / activity at 0.063 µM / activity at 0.125 µM / activity at 0.313 µM / activity at 0.625 µM / activity at 1.5 µM / activity at 3 µM / activity at 15 µM / activity at 37.5 µM / activity at 75 µM: read-out: C. elegans mitochondrial complex I activity
In short: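 Mitochondria, 0.2 mg/mL protein, freeze-thawed three times, assayed in 25 mM KPi pH 7.5 with BSA, 80 μM NADH, 60 μM decylubiquinone, 160 μM DCIP, antimycin A and KCN. Rate from initial linear slope of A600 over 15 min. % of solvent control.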

[2] = biological target: B. taurus (heart) complex I (Bos taurus, UniProt P03887+P17694+P42026); assay: biochemical; assay type: biochemical; details: for IC50: B. taurus heart mitochondria, read-out: B. taurus Complex I IC50; for Log IC50 B. taurus complex I: log10 of IC50 in µM, B. taurus mitochondria; for activity at 0.0001 µM / activity at 0.0005 µM / activity at 0.001 µM / activity at 0.0025 µM / activity at 0.005 µM / activity at 0.013 µM / activity at 0.025 µM / activity at 0.063 µM / activity at 0.125 µM / activity at 0.313 µM / activity at 0.625 µM / activity at 1.5 µM / activity at 3 µM / activity at 15 µM / activity at 37.5 µM / activity at 75 µM: read-out: B. taurus mitochondrial complex I activity
In short: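 Complex I activity followed as DCIP reduction (600 nm, 30 s reads, 15 min) with 80 μM NADH and 60 μM decylubiquinone in 25 mM KPi pH 7.5 containing 2 μM antimycin A and 2 mM KCN. Freeze-thawed mouse or bovine heart mitochondria at 0.2 mg/mL; initial-rate percent of solvent control, single-point 100 μM or dose-response.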

[3] = in vitro complex I dose response on C. elegans mitochondria, average of at least two biological replicates, fit in R (DRC), read-out: IC50 C. elegans complex I
[4] = wild-type C. elegans mitochondria, estimated from fitted dose-response curves, read-out: C. elegans Complex I IC50
[5] = estimated from fitted dose-response curves
[6] = wild-type C. elegans mitochondria, read-out: C. elegans Complex I IC50

B. taurus (heart) complex I, sequence (P03887 whole entry): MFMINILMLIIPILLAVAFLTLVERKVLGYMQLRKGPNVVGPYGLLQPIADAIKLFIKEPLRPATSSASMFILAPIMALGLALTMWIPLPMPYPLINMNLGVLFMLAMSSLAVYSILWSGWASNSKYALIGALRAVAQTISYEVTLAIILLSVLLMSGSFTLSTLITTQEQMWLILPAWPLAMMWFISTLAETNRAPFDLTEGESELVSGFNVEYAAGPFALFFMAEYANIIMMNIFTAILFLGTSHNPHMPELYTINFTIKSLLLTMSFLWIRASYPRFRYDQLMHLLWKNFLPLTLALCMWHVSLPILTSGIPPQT
B. taurus (heart) complex I, sequence (P17694 34-463): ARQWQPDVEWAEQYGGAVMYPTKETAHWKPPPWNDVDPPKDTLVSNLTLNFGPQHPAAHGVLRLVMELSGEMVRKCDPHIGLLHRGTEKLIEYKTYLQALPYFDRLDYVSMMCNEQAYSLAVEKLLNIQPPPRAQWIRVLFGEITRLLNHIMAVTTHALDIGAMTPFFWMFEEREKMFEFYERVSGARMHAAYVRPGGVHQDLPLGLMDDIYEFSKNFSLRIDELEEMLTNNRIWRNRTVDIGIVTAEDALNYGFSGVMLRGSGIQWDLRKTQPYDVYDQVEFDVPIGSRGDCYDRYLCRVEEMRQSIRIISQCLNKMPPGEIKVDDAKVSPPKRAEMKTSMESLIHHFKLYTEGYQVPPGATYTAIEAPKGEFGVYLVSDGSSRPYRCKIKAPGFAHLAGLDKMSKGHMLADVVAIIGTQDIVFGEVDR
B. taurus (heart) complex I, sequence (P42026 38-216): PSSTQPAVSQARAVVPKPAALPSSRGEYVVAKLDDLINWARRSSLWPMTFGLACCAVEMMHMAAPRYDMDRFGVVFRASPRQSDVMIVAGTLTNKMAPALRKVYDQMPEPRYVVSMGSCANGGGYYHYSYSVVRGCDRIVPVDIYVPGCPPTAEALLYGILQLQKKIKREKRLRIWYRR
C. elegans (N2) complex I (NADH:ubiquinone oxidoreductase), sequence (Q94360 17-199): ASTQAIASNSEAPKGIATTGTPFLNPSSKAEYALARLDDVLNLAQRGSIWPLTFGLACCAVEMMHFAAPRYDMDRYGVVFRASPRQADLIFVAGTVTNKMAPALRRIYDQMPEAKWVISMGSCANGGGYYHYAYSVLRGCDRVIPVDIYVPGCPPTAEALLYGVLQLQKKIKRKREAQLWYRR
C. elegans (N2) complex I (NADH:ubiquinone oxidoreductase), sequence (P24887 whole entry): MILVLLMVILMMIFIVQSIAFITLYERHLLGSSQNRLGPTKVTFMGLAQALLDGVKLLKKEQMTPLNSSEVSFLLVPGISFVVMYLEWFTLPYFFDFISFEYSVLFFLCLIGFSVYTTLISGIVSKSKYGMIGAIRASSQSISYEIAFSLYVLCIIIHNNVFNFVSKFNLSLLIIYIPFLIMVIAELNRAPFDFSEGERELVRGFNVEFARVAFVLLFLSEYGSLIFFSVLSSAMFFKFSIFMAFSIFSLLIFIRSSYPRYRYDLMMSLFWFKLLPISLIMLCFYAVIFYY
C. elegans (N2) complex I (NADH:ubiquinone oxidoreductase), sequence (Q93873 31-482): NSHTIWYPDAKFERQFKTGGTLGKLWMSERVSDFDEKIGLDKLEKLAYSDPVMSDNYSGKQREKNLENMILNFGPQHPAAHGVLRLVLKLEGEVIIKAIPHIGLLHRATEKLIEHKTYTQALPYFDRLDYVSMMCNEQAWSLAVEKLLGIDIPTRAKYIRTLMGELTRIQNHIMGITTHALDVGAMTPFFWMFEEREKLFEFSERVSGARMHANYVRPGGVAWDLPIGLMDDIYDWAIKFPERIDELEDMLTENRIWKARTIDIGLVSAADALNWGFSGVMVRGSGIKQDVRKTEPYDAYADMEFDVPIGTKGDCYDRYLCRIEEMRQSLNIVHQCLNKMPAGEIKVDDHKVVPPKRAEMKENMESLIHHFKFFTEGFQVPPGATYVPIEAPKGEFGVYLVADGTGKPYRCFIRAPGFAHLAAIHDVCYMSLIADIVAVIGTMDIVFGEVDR

SMILES | IC50 [1, 3] [µM] | Log IC50 C. elegans complex I [1] [µM] | Log IC50 B. taurus complex I [2] [µM] | activity at 0.0001 µM [1] [%] | activity at 0.0005 µM [1] [%] | activity at 0.001 µM [1] [%] | activity at 0.0025 µM [1] [%] | activity at 0.005 µM [1] [%] | activity at 0.013 µM [1] [%] | activity at 0.025 µM [1] [%] | activity at 0.063 µM [1] [%] | activity at 0.125 µM [1] [%] | activity at 0.313 µM [1] [%] | activity at 0.625 µM [1] [%] | activity at 1.5 µM [1] [%] | activity at 3 µM [1] [%] | activity at 15 µM [1] [%] | activity at 37.5 µM [1] [%] | activity at 75 µM [1] [%] | activity at 0.0001 µM [2] [%] | other results
C=CCn1c(-c2ccc(N(C)C)cc2)nc2ccccc21 [Compound 6873298] | 13.2 | 1.12 | 1.32 |  |  |  |  |  |  |  |  |  |  |  |  |  |  |  |  |  | IC50 [1, 4]: 13.2 µM; IC50 [2, 5]: 21 µM
Cc1ccccc1OCCCn1c(C)nc2ccccc21 [Compound 7916923] | 1.17 | 0.07 | 0.82 | 94.5 | 93.6 | 94.8 | 99.1 | 96.8 | 102 | 94.3 | 89.3 | 86.3 | 78.5 | 65.6 | 42.6 | 27.6 | 7.28 | 4.39 | 4.47 | 98.7 | IC50 [1, 4]: 1.17 µM; IC50 [2, 5]: 6.67 µM; activity at 0.0005 µM [2]: 101%; activity at 0.001 µM [2]: 103%; activity at 0.0025 µM [2]: 101%; activity at 0.005 µM [2]: 107%; activity at 0.013 µM [2]: 99.6%; activity at 0.025 µM [2]: 102%; activity at 0.063 µM [2]: 104%; activity at 0.125 µM [2]: 90.7%; activity at 0.313 µM [2]: 96.6%; activity at 0.625 µM [2]: 92.7%; activity at 1.5 µM [2]: 79.4%; activity at 3 µM [2]: 70.6%; activity at 15 µM [2]: 24.7%; activity at 37.5 µM [2]: 6.64%; activity at 75 µM [2]: 2.1%
Cc1nc2ccccc2n1CCOc1ccccc1 [Compound 5550112] | 5.79 | 0.76 | 0.99 | 88.8 | 84.9 | 88.8 | 93.8 | 86.7 | 87.2 | 83.3 | 78.1 | 80.5 | 78 | 89.4 | 71.3 | 60.5 | 24.9 | 11.1 | 5.83 | 101 | IC50 [1, 6]: 5.79 µM; IC50 [2]: 9.86 µM; activity at 0.0005 µM [2]: 97.8%; activity at 0.001 µM [2]: 105%; activity at 0.0025 µM [2]: 102%; activity at 0.005 µM [2]: 103%; activity at 0.013 µM [2]: 98.3%; activity at 0.025 µM [2]: 99.2%; activity at 0.063 µM [2]: 91.8%; activity at 0.125 µM [2]: 95.1%; activity at 0.313 µM [2]: 92.8%; activity at 0.625 µM [2]: 96.9%; activity at 1.5 µM [2]: 85.2%; activity at 3 µM [2]: 74.2%; activity at 15 µM [2]: 36.6%; activity at 37.5 µM [2]: 16.7%; activity at 75 µM [2]: 5.1%
Cc1ccc(OCCn2cnc3ccccc32)cc1 [Compound 5671538] | 5.33 | 0.73 | 1.24 | 97.2 | 96.5 | 95.3 | 106 | 90.9 | 104 | 98 | 92.5 | 91.2 | 90 | 88.7 | 79.2 | 75 | 18.9 | 23.9 | 13.8 | 94.3 | IC50 [1, 6]: 5.33 µM; IC50 [2]: 17.4 µM; activity at 0.0005 µM [2]: 97.5%; activity at 0.001 µM [2]: 95.2%; activity at 0.0025 µM [2]: 100%; activity at 0.005 µM [2]: 98.6%; activity at 0.013 µM [2]: 95.8%; activity at 0.025 µM [2]: 97.5%; activity at 0.063 µM [2]: 95%; activity at 0.125 µM [2]: 89.3%; activity at 0.313 µM [2]: 91.3%; activity at 0.625 µM [2]: 85.9%; activity at 1.5 µM [2]: 84.9%; activity at 3 µM [2]: 86.7%; activity at 15 µM [2]: 57.1%; activity at 37.5 µM [2]: 33.8%; activity at 75 µM [2]: 14.5%
Nc1nc2ccccc2n1CCOc1ccc(Br)cc1 [Compound 5842535] | 6.2 | 0.79 | 1.10 | 80 | 92.9 | 87.5 | 88.5 | 89.3 | 88.3 | 81.7 | 79.5 | 81.6 | 76.9 | 83.9 | 76.4 | 65 | 17.8 | 0.13 | 0 | 89.6 | IC50 [1, 6]: 6.2 µM; IC50 [2]: 12.7 µM; activity at 0.0005 µM [2]: 91.9%; activity at 0.001 µM [2]: 90.7%; activity at 0.0025 µM [2]: 94.2%; activity at 0.005 µM [2]: 96.1%; activity at 0.013 µM [2]: 92.4%; activity at 0.025 µM [2]: 87.8%; activity at 0.063 µM [2]: 92.4%; activity at 0.125 µM [2]: 92%; activity at 0.313 µM [2]: 85.5%; activity at 0.625 µM [2]: 84.7%; activity at 1.5 µM [2]: 82.8%; activity at 3 µM [2]: 67.2%; activity at 15 µM [2]: 33.6%; activity at 37.5 µM [2]: 3.2%; activity at 75 µM [2]: 1.7%
Cc1ccc(Cn2c(C)nc3ccccc32)cc1 [Compound 5651984] | 0.18 | -0.74 | -0.00436 |  |  |  |  |  |  |  |  |  |  |  |  |  |  |  |  |  | IC50 ([1]; wild-type (N2) mitochondria, read-out: C. elegans Complex I IC50): 0.18 µM; IC50 [1, 4]: 0.18 µM; IC50 [2, 5]: 0.99 µM
